Columns and labels:
Type in all cases: cell-based
HepG2.2.15 cells [1] = assay: CellTiter-Glo cytotoxicity of compound 1 / TDF combination
Procedure: 1.1 Day 1, HepG2.2.15 cells were seeded into a 96-well cell culture plate at a density of 40,000 cells/well, and then the cells were cultured overnight at 5% CO2 and 37° C.
1.2 Day 2, the compound 1 and TDF were combined with 7 different concentrations (selected about 8×, 4×, 2×, 1×, 0.5×, 0.25×, 0.125×EC50 concentration gradient) for orthogonal proportioning, and added to 96-well plate, each combination is 3 double plates, and the final concentration of DMSO is 0.5%.
1.3 Day 5, the cell supernatant was discarded, a fresh medium containing the compound was added, and the cells were cultured under 5% CO2, 37° C. for 3 days. On the 8th day, the supernatant from the cell plate treated with the compound was extracted according to the QIAamp 96 DNA Blood Kit (12) instruction.
MacSynegy software (Prichard et al., 1990) was used to process the HBV DNA copy number test data and analyze the effect parameters of compound 1 and TDF in combination. The CellTiter-Glo kit was used to detect the cytotoxicity of the compounds to HepG2.2.15 cells. According to the kit instructions, use a multifunctional microplate reader to detect the chemiluminescence intensity (RLU) of each cell well.

HBV = assay: Single agent anti-HBV activity, HBV DNA in supernatant by quantitative PCR, HepG2.2.15 cells; details: Hepatitis B virus, 192 h, day 8
Procedure: (§1) Cell line: HepG2.2.15 cells are constructed and provided by WuXi AppTec. The cell culture medium is DMEM/F12 medium supplemented with 2% fetal bovine serum, 2 mM glutamine, 1×non-essential amino acids, 100 U/mL penicillin and 100 µg/mL streptomycin.
(§2) 2.1.1 On the first day, HepG2.2.15 cells were seeded into a 96-well cell culture plate at a density of 60,000 cells/well, and then the cells were cultured overnight at 5% CO2 and 37° C. On the second day, the compound 1 and the compound of formula (IIb) and the compound of formula (IIIb) were diluted and added to a 96-well plate. Each combination was a three-fold plate. The cells were cultured under 5% CO2 and 37° C. for 3 days. On the 5th day, a new culture medium containing the compound was replaced, and the supernatant was collected on the 8th day. The HBsAg in the supernatant was detected by ELISA, and the DNA in the supernatant was extracted at the same time, and the content of HBV DNA in the supernatant was detected by quantitative PCR. After collecting the cell supernatant, add CellTiter-Glo to detect cell viability.

HBsAg = assay: Single agent anti-HBV activity, HBsAg in supernatant by ELISA, HepG2.2.15 cells; details: Hepatitis B virus, HepG2.2.15, 192 h, read-out: HBsAg EC50
Procedure: as §1, §2

[2] = Single agent cytotoxicity, CellTiter-Glo; details: human, HepG2.2.15 cells
Procedure: as §1, §2

HepG2.2.15 cells [3] = assay: Cytotoxicity of the compounds in combination, CellTiter Glo
Procedure: as §1
2.2.1 On the first day, HepG2.2.15 cells were seeded into a 96-well cell culture plate at a density of 60,000 cells/well, and then the cells were cultured overnight at 5% CO2 and 37° C. On the second day, different concentrations of compounds were added to treat the cells. Compounds were diluted in gradients, 7×7 concentration combinations, and 3 replicate plates were tested in parallel. The compound concentration tested for joint activity is based on the EC50 value of each compound. The 7 concentration gradients are approximately: 2×, 1×, ½×, ¼×, ⅛×, 1/16× and 1/32×EC50. The compound concentration of the combined activity test experiment is shown in Table 8, and the combination drug arrangement is shown in Table 9. On the 5th day, replace the fresh culture medium containing the compound. On the 8th day, the culture supernatant was collected, DNA was extracted, and the content of HBV DNA was detected by quantitative PCR. At the same time, CellTiter Glo reagent was used to detect cell viability and MacSynergy software was used to analyze the combined effect of the two drugs.

With `Cc1cc2n(c1)S(=O)(=O)c1ccc(C(=O)NCC[C@H]3COCCO3)cc1NC2=O` [Compound 1] the “average cell viability percentage” value (HepG2.2.15 cells [1]; Compound 1 0.533 nM + TDF 0 nM) was 121.5%, the “average cell viability percentage” value (HepG2.2.15 cells [1]; Compound 1 1.065 nM + TDF 0 nM) was 128.1% and the “average cell viability percentage” value (HepG2.2.15 cells [1]; Compound 1 2.131 nM + TDF 0 nM) was 124.5%. For the same molecule, the “average cell viability percentage” value (HepG2.2.15 cells [1]; Compound 1 4.261 nM + TDF 0 nM) was 125.1%, the “average cell viability percentage” value (HepG2.2.15 cells [1]; Compound 1 8.522 nM + TDF 0 nM) was 124.3% and the “average cell viability percentage” value (HepG2.2.15 cells [1]; Compound 1 17.04 nM + TDF 0 nM) was 123.1%. For the same molecule, the “average cell viability percentage” value (HepG2.2.15 cells [1]; Compound 1 34.09 nM + TDF 0 nM) was 115.2%, the EC50 (HBV) was 0.00603 µM and the EC50 (HBsAg) was > 1 µM. For the same molecule, the CC50 at 6 days [2] was > 1 µM, the “average cell viability percentage” value (HepG2.2.15 cells [3]; Compound 1 0.1875 nM + formula (IIIb) 0 nM) was 110.07% and the “average cell viability percentage” value (HepG2.2.15 cells [3]; Compound 1 0.1875 nM + formula (IIb) 0 nM) was 109.29%. For the same molecule, the “average cell viability percentage” value (HepG2.2.15 cells [3]; Compound 1 0.375 nM + formula (IIIb) 0 nM) was 112.42%, the “average cell viability percentage” value (HepG2.2.15 cells [3]; Compound 1 0.375 nM + formula (IIb) 0 nM) was 109.88% and the “average cell viability percentage” value (HepG2.2.15 cells [3]; Compound 1 0.75 nM + formula (IIIb) 0 nM) was 111.36%. For the same molecule, the “average cell viability percentage” value (HepG2.2.15 cells [3]; Compound 1 0.75 nM + formula (IIb) 0 nM) was 106.91%, the “average cell viability percentage” value (HepG2.2.15 cells [3]; Compound 1 1.5 nM + formula (IIIb) 0 nM) was 111.96% and the “average cell viability percentage” value (HepG2.2.15 cells [3]; Compound 1 1.5 nM + formula (IIb) 0 nM) was 105.37%. For the same molecule, the “average cell viability percentage” value (HepG2.2.15 cells [3]; Compound 1 3 nM + formula (IIIb) 0 nM) was 112.58%, the “average cell viability percentage” value (HepG2.2.15 cells [3]; Compound 1 3 nM + formula (IIb) 0 nM) was 104.39% and the “average cell viability percentage” value (HepG2.2.15 cells [3]; Compound 1 6 nM + formula (IIIb) 0 nM) was 112.45%. For the same molecule, the “average cell viability percentage” value (HepG2.2.15 cells [3]; Compound 1 6 nM + formula (IIb) 0 nM) was 103.50%, the “average cell viability percentage” value (HepG2.2.15 cells [3]; Compound 1 12 nM + formula (IIIb) 0 nM) was 111.17% and the “average cell viability percentage” value (HepG2.2.15 cells [3]; Compound 1 12 nM + formula (IIb) 0 nM) was 102.08%.
